# Measurements reported in PubChem BioAssay (NCI).
# “And” between values parts separate entries of the source, which are not always exact repeats. Equal entries are not always repeated.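 Exposure lasted 48 hours, with cells grown in 96-well plates and compounds tested at five concentrations. GI50 marks 50% less growth. Definition used: TGI = concentration required for complete inhibition of growth.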 The source made the active and inactive calls. Cut-off read from the data, not from the text of the source: active = GI50 below about 0.43 µM; inactive = the rest.
# Legend:
# Experiment in all cases: NCI tumour cell line growth inhibition, 48 h
# DMS 273 small cell lung = tested on: DMS 273 small cell lung
# RXF-631 renal = tested on: RXF-631 renal
# P388 leukemia = tested on: P388 leukemia
# P388/ADR leukemia = tested on: P388/ADR leukemia
# SN12K1 renal = tested on: SN12K1 renal
SMILES,TGI (DMS 273 small cell lung),TGI (RXF-631 renal),also measured
CC(=O)CC(=O)CCC(=O)Nc1cccc(C(F)(F)F)c1,> 100 µM,,
N#C/C(=C1\OC(=N)C(c2ccc(Cl)cc2Cl)C1=O)c1ccc(Cl)cc1Cl (stereo not given),> 100 µM,> 100 µM,
CC1CCC2(C)C(CC=C(C=O)C2(O)C=O)C12CO2 (stereo not given),7.61 µM,5.77 µM,
C/C(=N\NC(=S)N1CCN(c2ccccn2)CC1)c1ncccn1,3.71 µM and 15.2 µM,,GI50 (DMS 273 small cell lung): 0.0311 µM; TGI (P388 leukemia): 0.0153 µM; TGI (P388/ADR leukemia): 0.0154 µM; TGI (SN12K1 renal): 1.61 µM
O=C(Cc1ccccc1)C(c1ccccc1)S(=O)(=O)c1ccccc1 (stereo not given),> 100 µM,> 100 µM,
CC(C)(C)c1cc(C(=O)O)c2c(c1)C(=O)OC2(c1ccccc1)c1ccccc1C(=O)O (stereo not given),> 100 µM,,
O=C(CO)C1CC2C=CC1C2 (stereo not given),> 100 µM,> 100 µM,
c1ccc(-c2csc3ncn4cnnc4c23)cc1,> 100 µM,> 100 µM,
COc1c(CC=C(C)C)c(O)c(C(CC(C)C)c2c(O)c(CC=C(C)C)c(O)c(C(C)=O)c2O)c(O)c1C(C)=O (stereo not given),1.33 µM,6.94 µM,
c1ccc(CN2COc3c(ccc4c5c(ccc34)CN(Cc3ccccc3)CO5)C2)cc1,,> 100 µM,
CC(=O)[CH-]C(C)=O.CC(=O)[CH-]C(C)=O.CC(=O)[CH-]C(C)=O.[Ga+3],> 100 µM,,GI50 (DMS 273 small cell lung): > 100 µM
O=[N+]([O-])/C=C/c1ccc(Cl)cc1Cl,29.7 µM,,
CC(N)CC(=O)O (stereo not given),> 5000 µM,,
COc1c(OC(C)C)cc2cc(O)c(C(=O)NC3Cc4ccc(c(Cl)n4)O[C@@H]4C=C5C#C/C(=C\C#CC6OC56C4OC4CC(C)(O)C(O)C(C)O4)C(OC4CC(O)C(N(C)C)C(C)O4)COC3=O)cc2c1OC (stereo not given in full),12.7 µg/mL,,GI50 (DMS 273 small cell lung): 0.279 µg/mL; outcome (RXF-631 renal): inactive
O=c1[nH]c2ccccc2n1C1CCN(CCCC(c2ccc(F)cc2)c2ccc(F)cc2)CC1,11.9 µM,,
O=C(c1c(O)cc(O)cc1O)C1Cc2ccccc21 (stereo not given),> 100 µM,,
CCOC(=O)C(CCCNC(=O)OC(C)(C)C)N(Cc1ccc(OC)cc1OC)C(=O)CC(=O)CP(=O)(OCC)OCC (stereo not given),> 100 µM,> 100 µM,
CC(=O)OCC(CC[CH2][Sn]([Cl])([Cl])[c]1ccccc1)OC(C)=O (stereo not given),43.3 µM,,GI50 (DMS 273 small cell lung): 20.6 µM
C[P+]1(c2ccccc2)CCCCC1,> 100 µM,> 100 µM,
